Test results as given in PMC10931833, “Simultaneous Purification of Human Interferon Alpha-2b and Serum Albumin Using Bioprivileged Fluorinated Ionic Liquid-Based Aqueous Biphasic Systems” (International Journal of Molecular Sciences, 2024).
Like-named read-outs stand apart in the source and are kept apart here.

Assays:
BSA = molecular target: T1, BSA (Bos taurus, UniProt P02769); experiment: Far-UV CD secondary structure of BSA (CONTIN-LL deconvolution); format: physicochemical, bovine; design: Regular Alpha Helix / Distorted Alpha Helix / Regular Beta Sheet / Distorted Beta Sheet / Turns / Unordered: unit not given here; details: 1.0 mg/mL BSA, 25 °C
T1 construct: purchased Millipore Sigma-Aldrich
T1 sequence (P02769 25-607): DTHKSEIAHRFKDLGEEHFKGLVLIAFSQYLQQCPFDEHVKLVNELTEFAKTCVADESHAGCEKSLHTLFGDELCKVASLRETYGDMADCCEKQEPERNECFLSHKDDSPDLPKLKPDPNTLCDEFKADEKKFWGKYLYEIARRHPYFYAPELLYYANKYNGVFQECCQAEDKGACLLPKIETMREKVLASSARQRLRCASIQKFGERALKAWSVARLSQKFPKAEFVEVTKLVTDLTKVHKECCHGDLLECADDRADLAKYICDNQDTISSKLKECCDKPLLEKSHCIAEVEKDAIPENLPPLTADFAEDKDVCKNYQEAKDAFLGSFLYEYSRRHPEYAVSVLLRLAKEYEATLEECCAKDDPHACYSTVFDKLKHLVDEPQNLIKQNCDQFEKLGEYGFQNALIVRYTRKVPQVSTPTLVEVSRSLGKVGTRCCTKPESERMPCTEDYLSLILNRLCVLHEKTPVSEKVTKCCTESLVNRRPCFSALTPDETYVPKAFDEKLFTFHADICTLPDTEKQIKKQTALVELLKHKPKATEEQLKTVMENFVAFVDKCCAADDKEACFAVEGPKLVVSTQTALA
Source text: Circular dichroism (CD) is widely used to study the secondary structures of proteins, peptides and nucleic acids, because it requires a low concentration sample, is a nondestructive method, allows studying a wide range of variables (temperature, pH, etc.), and provides information on the effect of added ligands on protein folding and interactions. Far-UV (190–260 nm) CD spectroscopy was used to assess the IFN- α 2b and BSA secondary structure since the spectra are characteristic of different structural elements.
Circular dichroism (CD) spectra were collected in a 10 mm quartz cuvette and a Chirascan spectropolarimeter (Applied Photophysics, UK) at room temperature. All CD spectra were recorded in the far-UV range of 190 to 260 nm at scan rates of 50 nm/min, with 4 accumulations, and a response time of 3 s; CD spectra were collected. For each CD experiment, two distinct duplicates were acquired and combined. BSA was fixed at 1 mg/mL, solvent concentrations ranging from 0.1 to 200 mM were used, and the spectra were translated to MRE after being expressed in terms of molar ellipticity. Spectral deconvolution was carried out with DichroWeb using the CONTIN-LL deconvolution algorithm with the SMP180 reference set.

FITC-BSA = molecular target: T2, FITC-BSA (Bos taurus, UniProt P02769); experiment: MST binding to FITC-BSA; design: species or system bovine; details: 0.41 μM BSA
T2 construct: purchased Millipore Sigma-Aldrich
T2 sequence (P02769 25-607): as above
Description: Herein, a commercial FITC labeling kit (Section 3) was used to fluorescently tag both IFN- α 2b and BSA. Typically, in the labeling process, one amine per protein is labeled, statistically distributing the position of the dye. […] The MST assay was performed as detailed in Section 3. The solutions were prepared with a concentration of IFN- α 2b and BSA fixed at 0.41 μ M in water. For IFN- α 2b a concentration of 2.7 μ M was also prepared to compare it with previous results on MST-binding between FILs and IFN- α 2b fluorescently labeled with a different tag. In each run of MST, a maximum concentration of a ligand is selected and consecutively diluted in sixteen capillaries. […] The experimental conditions of the MST assay only allow the study of the aggregation phenomenon individually for the first CAC.
Microscale thermophoresis (MST) measurements of the dye-labeled protein were used to conduct binding investigations. […] MST tests were conducted in a monolith NT.115 (blue/red) in accordance with the NanoTemper Technologies methodology. Medium MST power and 20% LED power (nano-blue) were set as the instrument’s default settings. For every MST measurement, a PBS buffer was used. The concentration of FITC-BSA was fixed at 0.4 μ M and FITC-IFN- α 2b was tested under two different concentrations (of 0.4 and 2.7 μ M). The ligand was used to create a set of 16 1:1 dilutions, with the starting ligand concentrations ranging from 10 to 400 mM. The typical parameters for MST traces were used for recording: […], 30 s MST power on, and 5 s MST power off. The data from three independently conducted pipetted experiments were examined using NanoTemper Technologies’ MO.Affinity Analysis software, version 2.3.

CCCCn1cc[n+](C)c1.O=S(=O)([O-])C(F)(F)F [[C4C1Im][CF3SO3], 1-butyl-3-methylimidazolium trifluoromethanesulfonate]
Distorted Alpha Helix (BSA; 0.1 mM component): 0.207 | Distorted Beta Sheet (BSA; 0.1 mM component): 0.028 | Regular Alpha Helix (BSA; 0.1 mM component): 0.403 | Regular Beta Sheet (BSA; 0.1 mM component): 0.008 | Turns (BSA; 0.1 mM component): 0.141 | Unordered (BSA; 0.1 mM component): 0.212 | Distorted Alpha Helix (BSA; 1 mM component): 0.215 | Distorted Beta Sheet (BSA; 1 mM component): 0.023 | Regular Alpha Helix (BSA; 1 mM component): 0.419 | Regular Beta Sheet (BSA; 1 mM component): 0.000 | Turns (BSA; 1 mM component): 0.135 | Unordered (BSA; 1 mM component): 0.208 | Distorted Alpha Helix (BSA; 5 mM component): 0.209 | Distorted Beta Sheet (BSA; 5 mM component): 0.025 | Regular Alpha Helix (BSA; 5 mM component): 0.403 | Regular Beta Sheet (BSA; 5 mM component): 0.000 | Turns (BSA; 5 mM component): 0.136 | Unordered (BSA; 5 mM component): 0.227 | Distorted Alpha Helix (BSA; 25 mM component): 0.180 | Distorted Beta Sheet (BSA; 25 mM component): 0.031 | Regular Alpha Helix (BSA; 25 mM component): 0.297 | Regular Beta Sheet (BSA; 25 mM component): 0.020 | Turns (BSA; 25 mM component): 0.128 | Unordered (BSA; 25 mM component): 0.344 | Distorted Alpha Helix (BSA; 55 mM component): 0.217 | Distorted Beta Sheet (BSA; 55 mM component): 0.021 | Regular Alpha Helix (BSA; 55 mM component): 0.390 | Regular Beta Sheet (BSA; 55 mM component): 0.000 | Turns (BSA; 55 mM component): 0.131 | Unordered (BSA; 55 mM component): 0.240 | Distorted Alpha Helix (BSA; 90 mM component): 0.202 | Distorted Beta Sheet (BSA; 90 mM component): 0.026 | Regular Alpha Helix (BSA; 90 mM component): 0.382 | Regular Beta Sheet (BSA; 90 mM component): 0.007 | Turns (BSA; 90 mM component): 0.136 | Unordered (BSA; 90 mM component): 0.247 | Distorted Alpha Helix (BSA; 120 mM component): 0.212 | Distorted Beta Sheet (BSA; 120 mM component): 0.019 | Regular Alpha Helix (BSA; 120 mM component): 0.378 | Regular Beta Sheet (BSA; 120 mM component): 0.000 | Turns (BSA; 120 mM component): 0.126 | Unordered (BSA; 120 mM component): 0.266 | Distorted Alpha Helix (BSA; 200 mM component): 0.223 | Distorted Beta Sheet (BSA; 200 mM component): 0.024 | Regular Alpha Helix (BSA; 200 mM component): 0.411 | Regular Beta Sheet (BSA; 200 mM component): 0.000 | Turns (BSA; 200 mM component): 0.136 | Unordered (BSA; 200 mM component): 0.206 | Kd (FITC-BSA; max. conc. first capillary 12.5 mM (monomer)): no binding detected | Kd (FITC-BSA; max. conc. first capillary 400 mM (monomer)): no binding detected

CCn1cc[n+](C)c1.O=S(=O)([O-])C(F)(F)C(F)(F)C(F)(F)C(F)(F)F [1-ethyl-3-methylimidazolium perfluorobutane sulfonate]
Distorted Alpha Helix (BSA; 0.1 mM component): 0.206 | Distorted Beta Sheet (BSA; 0.1 mM component): 0.029 | Regular Alpha Helix (BSA; 0.1 mM component): 0.407 | Regular Beta Sheet (BSA; 0.1 mM component): 0.000 | Turns (BSA; 0.1 mM component): 0.142 | Unordered (BSA; 0.1 mM component): 0.216 | Distorted Alpha Helix (BSA; 1 mM component): 0.210 | Distorted Beta Sheet (BSA; 1 mM component): 0.025 | Regular Alpha Helix (BSA; 1 mM component): 0.401 | Regular Beta Sheet (BSA; 1 mM component): 0.000 | Turns (BSA; 1 mM component): 0.137 | Unordered (BSA; 1 mM component): 0.226 | Distorted Alpha Helix (BSA; 5 mM component): 0.207 | Distorted Beta Sheet (BSA; 5 mM component): 0.027 | Regular Alpha Helix (BSA; 5 mM component): 0.406 | Regular Beta Sheet (BSA; 5 mM component): 0.007 | Turns (BSA; 5 mM component): 0.138 | Unordered (BSA; 5 mM component): 0.215 | Distorted Alpha Helix (BSA; 25 mM component): 0.197 | Distorted Beta Sheet (BSA; 25 mM component): 0.035 | Regular Alpha Helix (BSA; 25 mM component): 0.384 | Regular Beta Sheet (BSA; 25 mM component): 0.023 | Turns (BSA; 25 mM component): 0.149 | Unordered (BSA; 25 mM component): 0.212 | Distorted Alpha Helix (BSA; 55 mM component): 0.210 | Distorted Beta Sheet (BSA; 55 mM component): 0.026 | Regular Alpha Helix (BSA; 55 mM component): 0.402 | Regular Beta Sheet (BSA; 55 mM component): 0.000 | Turns (BSA; 55 mM component): 0.140 | Unordered (BSA; 55 mM component): 0.223 | Distorted Alpha Helix (BSA; 90 mM component): 0.207 | Distorted Beta Sheet (BSA; 90 mM component): 0.026 | Regular Alpha Helix (BSA; 90 mM component): 0.382 | Regular Beta Sheet (BSA; 90 mM component): 0.004 | Turns (BSA; 90 mM component): 0.142 | Unordered (BSA; 90 mM component): 0.239 | Distorted Alpha Helix (BSA; 120 mM component): 0.206 | Distorted Beta Sheet (BSA; 120 mM component): 0.032 | Regular Alpha Helix (BSA; 120 mM component): 0.405 | Regular Beta Sheet (BSA; 120 mM component): 0.014 | Turns (BSA; 120 mM component): 0.147 | Unordered (BSA; 120 mM component): 0.196 | Distorted Alpha Helix (BSA; 200 mM component): 0.183 | Distorted Beta Sheet (BSA; 200 mM component): 0.025 | Regular Alpha Helix (BSA; 200 mM component): 0.316 | Regular Beta Sheet (BSA; 200 mM component): 0.014 | Turns (BSA; 200 mM component): 0.108 | Unordered (BSA; 200 mM component): 0.354 | Kd (FITC-BSA; max. conc. first capillary below 1st CAC (monomer)): no binding detected | Kd (FITC-BSA; max. conc. first capillary in 1st CAC range, read-out: Kd): 1610 ± 390 µM | Kd (FITC-BSA; max. conc. first capillary in 2nd CAC range, read-out: Kd): 1730 ± 420 µM | Kd (FITC-BSA; max. conc. first capillary in 3rd CAC range, read-out: Kd): 2860 ± 1460 µM | Kd (FITC-BSA; max. conc. first capillary in 4th CAC range): no binding detected
